Results: patent US9791449B2, “Ovarian cancer stem cells and methods of isolation and uses thereof” (THE GENERAL HOSPITAL CORPORATION, priority 2011, dated 2017)
Entries after “also recorded” stand apart in the source; their conditions may differ.

Tests used:
OVCAR-5 cells [1] = test: Cell proliferation assay in monolayer (trypan blue count plus flow cytometry); format: cell-based, human; settings: for proliferation of 3+/Ecad+ population / proliferation of 3+/Ecad− population: OVCAR-5, doxorubicin 60 nM, 1, 2 and 3 days
Method: OVCAR-5 cells were seeded in T-75 flasks at different densities (1.6×10^6, 1.2×10^6, 0.8×10^6 cells) with DMEM in 10% FCS, incubated for 24 h, and then treated with either PBS (control) or 60 nM doxorubicin for 24, 48, and 72 h. Cells seeded at 0.8×10^6 were also treated with cisplatin (0.2, 0.5, 1 μM) for 72 h. Harvested total viable cells were counted by trypan blue staining in a hemocytometer and stained with antihuman CD24-PE, anti-mouse/human CD44-APC/Cy7, anti-human Epcam-APC, and anti-human Ecadherin-FITC. Flow cytometry was performed to analyze for the absolute number of 3+/Ecad− and 3+/Ecad+ cells, which were calculated from the total viable cell numbers by analyzing the percentage of each population adjusted for seeding density (1×, 1.5×, and 2×, respectively).

[2] = system: ovarian cancer cells marked by CD44, CD24, and Epcam (3+); settings: after treatment with chemotherapeutics; cited from earlier work
3+/Ecad− OVCAR-5 cells = test: Colony formation assay of FACS-separated cells; format: cell-based, human; settings: OVCAR-5 3+/Ecad− cells, 2000 cells in six-well plates, MIS 30 ug/ml or Doxorubicin 30 nM vs media, 14 days
Method: Colony formation was performed as previously described (4; wei 2010). 3+/Ecad− or 3−/Ecad+ cells separated from the ovarian cancer cell lines were treated with MIS or doxorubicin, cisplatin, or taxol, then plated on 6-well plates containing 2 ml/well complete DMEM medium at 500, 1000, or 2000 cells/well, and incubated for 14 days at 37° C., with a media change at day 7. Cells separated from primary ascites were plated on 12-well plates coated by metrigel or by agarose for colony formation assays at 25,000, 50,000, or 100,000 cells/well. Cells were seeded on 1:2 metrigel or in 0.4% agarose over a 0.8% layer, and incubated for 3-4 weeks at 37° C. At day 14 (cell lines) or day 21 (ascites), plates were washed with 1×PBS, and cells fixed with methanol. Resulting colonies were stained with Giemsa and the stained area captured and analyzed using Image J (Rasband, NIH, USA, http://rsb.info.nih.gov/ij/). Large colonies greater than 4 mm at 10× magnification were also counted and compared.

OVCAR-5 cells [3] = test: Cell cycle analysis by flow cytometry; format: cell-based, human
Method: OVCAR-5 was grown to 50-60% confluency in DMEM with 10% FCS, untreated or treated with 100 μg/mL (714 nM) MIS or 60 nM doxorubicin for 48 h, harvested, and incubated with 10 μg/mL Hoechst 33342 at 37° C. for 30 min or 40 μg/mL propidium iodide (Sigma) at 25° C. for 30 min. Cells were stained with anti-human CD24-PE, anti-mouse/human CD44-APC/Cy7, anti-human Epcam-APC, and anti-human Ecadherin-FITC for 20 min at 4° C. and fixed in paraformaldehyde (1%), and the cell cycle was analyzed using the SORP LSRII.

[4] = system: MOVCAR-7 and MOVCAR-8 cell lines; test: qPCR of CDK inhibitor mRNAs relative to GAPDH; format: cell-based, mouse
Method: Total microRNA (miRNAs) were extracted from the different cell lines HOSE-4, HOSE-6, OVCAR-5, OVCAR-3, OVCAR-8, IGROV-1, and SKOV-3 using the miRNeasy Mini kit (QIAGEN) and reverse-transcribed to cDNAs using the TaqMan MicroRNA Reverse Transcription Kit (Applied Biosystems). Levels of Let-7c miRNAs were measured by quantitative PCR using TagMan Let-7 probes (Applied Biosystems; part no. 4373167) with U47 RNA as internal standard for normalization. Total mRNAs were also extracted from separated and unseparated OVCAR-5, MOVCAR-7, and MOVCAR-8 cell lines using an RNeasy Mini kit (QIAGEN) and reverse-transcribed to cDNAs using the SuperScript III Reverse Transcription Kit (Invitrogen). Levels of Lin28 and cyclin-dependent kinase (CDK) inhibitor mRNAs were measured by quantitative PCR with GAPDH as an internal standard using the following primers: […]
LIN28 F ([…])(SEQ ID NO: 34) and R ([…])(SEQ ID NO: 35); p15 F ([…])(SEQ ID NO: 36) and R ([…])(SEQ ID NO: 37); p16 F ([…])(SEQ ID NO: 38) and R ([…])(SEQ ID NO: 39); p18 F ([…])(SEQ ID NO: 40) and R ([…])(SEQ ID NO: 41); p19F ([…])(SEQ ID NO: 42) and R ([…])(SEQ ID NO: 43); p21 F ([…])(SEQ ID NO: 44) and R ([…])(SEQ ID NO: 45); p27 F ([…])(SEQ ID NO: 46) and R ([…])(SEQ ID NO: 47); CDK2 F ([…])(SEQ ID NO: 48) and R ([…])(SEQ ID NO: 49); CDK4 F ([…])(SEQ ID NO: 50) and R([…])(SEQ ID NO: 51); CDK6 F ([…])(SEQ ID NO: 52) and R ([…])(SEQ ID NO: 53); and GAPDH F ([…])(SEQ ID NO: 54) and R ([…])(SEQ ID NO: 55). Relative fold changes of Let-7c miRNAs and Lin28 and CDK inhibitor mRNAs were calculated as ΔCt or ΔΔCt (1) (n=3 for each primer).

[5] = OVCAR-5, cisplatin 0.2, 0.5 and 1 μM, 3 d, absolute cell number
[6] = absolute cell number, listed as Doxorubicin

| Structure (SMILES) | proliferation of total viable cells (OVCAR-5 cells [1]; OVCAR-5, cisplatin 0.2, 0.5 and 1 μM, 3 d) | proliferation of 3+Ecad− population (OVCAR-5 cells [1]; [5]) | proliferation of 3−Ecad+ population (OVCAR-5 cells [1]; [5]) | proliferation of 3+Ecad− population (OVCAR-5 cells [1]; OVCAR-5, cisplatin 0.2, 0.5 and 1 μM, 3 d, absolute cell number, listed as Cisplatin) | relative numbers of 3+ enriched population compared to 3− cells [2] | colony formation of 3+/Ecad− cells (3+/Ecad− OVCAR-5 cells) | colony formation of 3+/Ecad− cells (3+/Ecad− OVCAR-5 cells; listed as Doxorubicin) | proliferation of 3+/Ecad+ population (OVCAR-5 cells [1]; absolute cell number) | proliferation of 3+/Ecad− population (OVCAR-5 cells [1]; absolute cell number) | proliferation of 3+/Ecad+ population (OVCAR-5 cells [1]; [6]) | proliferation of 3+/Ecad− population (OVCAR-5 cells [1]; [6]) | proliferation of total viable cells (OVCAR-5 cells [1]; unseparated OVCAR-5, doxorubicin 60 nM, 1, 2 and 3 days) | proliferation of total viable cells (OVCAR-5 cells [1]; unseparated OVCAR-5, doxorubicin 60 nM, 1, 2 and 3 days, listed as Doxorubicin) | percentage of 3+/Ecad− cells in G1 (OVCAR-5 cells [3]; 100 μg/mL (714 nM) MIS or 60 nM doxorubicin, 48 h) | S or G2 distributions of either 3+Ecad− or 3−Ecad+ (OVCAR-5 cells [3]; doxorubicin 60 nM, 2 d) | p15 expression ([4]; MOVCAR-7 and -8, 50 μg/mL MIS or 60 nM doxorubicin vs vehicle, 4 h) | other CDK inhibitors mRNA levels (p18, p19, p21, p27) ([4]; MOVCAR-7 or -8, 50 μg/mL MIS or 60 nM doxorubicin, 4 h) | kinases tested (CDK2, CDK4, CDK6) ([4]; transgenic cell lines treated with MIS or doxorubicin, data not shown) |
| --- | --- | --- | --- | --- | --- | --- | --- | --- | --- | --- | --- | --- | --- | --- | --- | --- | --- | --- |
| N.N.[Cl][Pt][Cl] [cisplatin] | inhibits proliferation | increased | inhibits proliferation | stimulates | increased |  |  |  |  |  |  |  |  |  |  |  |  |  |
| COc1cccc2c1C(=O)c1c(O)c3c(c(O)c1C2=O)C[C@@](O)(C(=O)CO)C[C@@H]3O[C@H]1C[C@H](N)[C@H](O)[C@H](C)O1 [doxorubicin, reference compound] |  |  |  |  | increased | significantly increased number of colonies; also recorded: significantly increases; also recorded: stimulated; also recorded: paradoxically increased; also recorded: significantly increased colony numbers | paradoxically increased significantly | decreased | paradoxically increased | inhibits proliferation | stimulates | significant inhibition | inhibits proliferation | decreased | did not statistically affect | decreased; also recorded: significant and opposite responses | did not regulate significantly | unaffected |
| CC(=O)O[C@H]1C(=O)[C@@]2(C)[C@H]([C@H](OC(=O)c3ccccc3)[C@]3(O)C[C@H](OC(=O)[C@H](O)[C@@H](NC(=O)c4ccccc4)c4ccccc4)C(C)=C1C3(C)C)[C@]1(OC(C)=O)CO[C@@H]1C[C@@H]2O [paclitaxel] |  |  |  |  | increased |  |  |  |  |  |  |  |  |  |  |  |  |  |
